Results reported in US20260317304A1, “TEAD INHIBITORS AND METHODS OF USE” (Sporos BioDiscovery, Inc., priority 2022, published 2026).
pEC50: −log10 of the molar value.

Legend:
[1] = test system: LOU-NH91 cells; assay: LOU-NH91 proliferation and cell viability assay (CTG); assay type: cell-based; conditions: 216 hours
Experimental: LOU-NH91 cells were trypsinised, counted and plated at 1000 cells/well in 200 μl of growth media in 96 well flat bottom tissue culture treated plates. The plated cells were incubated overnight at 37° C., 5% CO2 before being treated with compounds in triplicate for each assay point. 50 μl of the serially diluted compound was added to each well giving a final DMSO concentration of 0.5% per well and a total volume of 250 μl per well. The treated cells were incubated for 216 hours (9 days) at 37° C., 5% CO2. Following compound treatment, the remaining viable cells were detected using the Promega CellTiter-Glo 2.0 assay as follows: 150 μl of media was removed from each of the wells to be assayed and 100 μl of room temperature CellTiter-Glo 2.0 reagent was added. The plate was placed on an orbital shaker at 500 rpm at room temperature for 2 minutes, and then incubated without shaking for a further 10 minutes at room temperature. 150 μl of cell lysate was removed from each well and dispensed into a single well of a white opaque 96 well plate. Luminescence at 545 nm was read using a BMG CLARIOstar plate reader. The luminescent signal was directly proportional to number of viable cells, the percent of viable cells relative to the DMSO control was then calculated for each assay point. Percent viability relative to DMSO control was plotted against compound concentration and a curve fitted with non-linear regression in GraphPad Prism software. EC50 and absolute IC50 values were calculated using GraphPad Prism software as follows: For EC50 values a non-constrained four-parameter logistic curve fit was used (Sigmoidal, 4PL, X is concentration). For Absolute IC50 values the baseline was constrained to Y=0 and top at 100 (Absolute IC50, X is concentration). Area Under the Curve (AUC): Prism computes area-under-the-curve by the trapezoidal method. The analysis sees a fitted curve as simply a series of connected XY points. Prism simply computes the area under the “curve” defined by connecting the points by straight lines. The units of the AUC are the units of the Y axis times units of the X axis. […]

[2] = test system: MSTO-211H xenograft; assay: Mouse xenograft MSTO-211H tumors, study part 1; assay type: in vivo, BALB/c nude mice; conditions: PO; for Tumor size (mean ± SEM) / T/C / TGI: BID; for Tumor Volume (mean ± SEM): BID (Table 16)
Text: This study evaluated the in vivo anti-tumor efficacy of test compounds in BALB/c nude mice for treatment of MSTO-211H xenograft of lung cancer.
• Species: Mus Musculus • Strain: BALB/c nude • Age: 6-8 weeks • Sex: female • Body weight: 18-22 g • Number of animals inoculated with tumor: 80 mice • Number of animals enrolled in the treatment: 36 mice • Number of unenrolled animals: 44 mice • Animal supplier: Beijing Vital River Biotechnology Experimental Animal Co. Ltd Certification number: 20170011010591
The MSTO-211H tumor cells were maintained in RPMI 1640 medium supplemented with 10% Fetal bovine serum and 1% Antibiotic-Antimycotic at 37° C. in an atmosphere of 5% CO2 in air. The tumor cells were routinely subcultured twice weekly by trypsin-EDTA. The cells growing in an exponential growth phase with 95% cell survival or above were harvested, and counted for tumor inoculation.
Each mouse was inoculated subcutaneously at the right flank with MSTO-211H tumor cells (5×10^6+50% matrigel/0.2 mL) for tumor development. Animals were marked with earrings with unique 6 significant figure number for identification. The treatments of part 1 were started on day 5 after cell inoculation when the average tumor volume reached 181 mm^3. The treatments of part 2 were started on day 16 after cell inoculation when the average tumor volume reached 254 mm^3. The treatments of part 3 were started on day 33 after cell inoculation when the average tumor volume reached 969 mm^3.
The major endpoint was to determine if the tumor growth could be delayed. Tumor volume was measured twice a week in two dimensions using a caliper, and the volume was expressed in mm^3 using the formula: V=0.5 a×b^2 where a and b are the long and short diameters of the tumor, respectively. The tumor size was then used for calculations of T/C value. The TGI value (in percent) or the T/C value (in percent) is an indication of antitumor effectiveness; T and C are the mean tumor volumes or tumor weights of the treated and control groups, respectively, on a given day.
TGI was calculated for each group using the formula: TGI (%)=[1−(Ti−T0)/(Vi−V0)]×100; Ti is the average tumor volume of a treatment group on a given day, T0 is the average tumor volume of the treatment group on the day of treatment start, Vi is the average tumor volume of the vehicle control group on the same day with Ti, and V0 is the average tumor volume of the vehicle group on the day of treatment start.
Relative T/C (%)=TRTV/CRTV×100 (RTV (%)=Vt/V0×100, Vt is the average tumor volume on a given day, V0 is the average tumor volume on the first day of treatment. TRTV is the RTV of a treatment group, and the CRTV is the RTV of the vehicle control group.)
The antitumor effectiveness of part 1 study was analyzed on PG-D31 when vehicle group reached 681 mm^3.
Summary statistics, including mean and the standard error of the mean (SEM), were provided for the tumor volume of each group at each time point.
Statistical analysis of difference in tumor volume among the groups was conducted on the data obtained at the end of the study.
One-tailed T test was performed to compare tumor volumes between two groups. All data are analyzed using GraphPad Prism 6.0. p<0.05 is considered to be statistically significant.

SMILES	pEC50 [1]	Tumor size (mean ± SEM) ([2]; part 1, day 0, 12.5 mg/kg) [mm^3]	Tumor size (mean ± SEM) ([2]; part 1, day 3, 12.5 mg/kg) [mm^3]	Tumor size (mean ± SEM) ([2]; part 1, day 6, 12.5 mg/kg) [mm^3]	Tumor size (mean ± SEM) ([2]; part 1, day 10, 12.5 mg/kg) [mm^3]	Tumor size (mean ± SEM) ([2]; part 1, day 13, 12.5 mg/kg) [mm^3]	Tumor size (mean ± SEM) ([2]; part 1, day 17, 12.5 mg/kg) [mm^3]	Tumor size (mean ± SEM) ([2]; part 1, day 20, 12.5 mg/kg) [mm^3]	Tumor size (mean ± SEM) ([2]; part 1, day 23, 12.5 mg/kg) [mm^3]	Tumor size (mean ± SEM) ([2]; part 1, day 27, 12.5 mg/kg) [mm^3]	T/C ([2]; part 1, day 31, 12.5 mg/kg) [%]	TGI ([2]; part 1, day 31, 12.5 mg/kg) [%]	Tumor size (mean ± SEM) ([2]; part 1, day 31, 12.5 mg/kg) [mm^3]	Tumor Volume (mean ± SEM) ([2]; part 1, day 31, 12.5 mg/kg) [mm^3]
Cn1cnc(-c2cc([C@@]3(C)CCNC3=O)ccc2Nc2ccc(C(F)(F)F)cc2)c1 (single isomer, unassigned) [Compound 5, 3-methyl-3-(3-(1-methyl-1H-imidazol-4-yl)-4-((4-(trifluoromethyl)phenyl)amino)phenyl)pyrrolidin-2-one]	> 6.70	181 ± 11	241 ± 31	230 ± 30	151 ± 18	117 ± 10	63 ± 13	72 ± 15	64 ± 7	79 ± 13	11.82	120.17	81 ± 18	81 ± 18
Cn1nnc(-c2cc([C@]3(C)CCNC3=O)ccc2Nc2ccc(C(F)(F)F)cc2)n1 (stereo in doubt) [Compound 20, 3-methyl-3-(3-(2-methyl-2H-tetrazol-5-yl)-4-((4-(trifluoromethyl)phenyl)amino)phenyl) pyrrolidin-2-one]		181 ± 7	183 ± 26	188 ± 52	117 ± 44	92 ± 28	66 ± 10	60 ± 13	59 ± 16	75 ± 18	8.81	124.25	60 ± 11	60 ± 11
C=CC(=O)Nc1ccc(C)c(Oc2ccc(Cl)cc2)c1 [Compound 1-3, reference compound]	> 6.70													
FC(F)(F)c1ccc(CN2CCC(C3CC(Br)=NO3)CC2)cc1 (stereo not drawn) [Compound 1-2, reference compound]	> 6.70													
Cn1cnc(-c2cc(C3(C)NC(=O)NC3=O)ccc2Nc2ccc(C(F)(F)F)cc2)c1 (single isomer, unassigned) [Compound 15, 5-methyl-5-(3-(1-methyl-1H-imidazol-4-yl)-4-((4-(trifluoromethyl)phenyl)amino)phenyl)imidazolidine-2,4-dione]		181 ± 11	216 ± 27	175 ± 19	154 ± 5	111 ± 13	88 ± 12	105 ± 6	134 ± 10	166 ± 20	23.57	104.12	161 ± 12	161 ± 12
